In patent publication US12527835B2, “Brevican-binding peptides for brain tumor imaging” (The Brigham and Women's Hospital, Inc., priority 2018, dated 2026):
Where a SMILES comes first, the peptide text is derived from it. Where no end group is shown, it is not given here. [ ]: non-standard residue; d: D form. Ahx = NCCCCCC(=O)O

What was measured:
[1] = molecular target: T1, recombinant BΔg protein (deglycosylated brevican) (Homo sapiens, UniProt Q96GW7); test: Octet steady state binding affinity to recombinant BΔg
T1 construct: purchased R&D Systems 4009-BC-050
T1 sequence (Q96GW7 23-911): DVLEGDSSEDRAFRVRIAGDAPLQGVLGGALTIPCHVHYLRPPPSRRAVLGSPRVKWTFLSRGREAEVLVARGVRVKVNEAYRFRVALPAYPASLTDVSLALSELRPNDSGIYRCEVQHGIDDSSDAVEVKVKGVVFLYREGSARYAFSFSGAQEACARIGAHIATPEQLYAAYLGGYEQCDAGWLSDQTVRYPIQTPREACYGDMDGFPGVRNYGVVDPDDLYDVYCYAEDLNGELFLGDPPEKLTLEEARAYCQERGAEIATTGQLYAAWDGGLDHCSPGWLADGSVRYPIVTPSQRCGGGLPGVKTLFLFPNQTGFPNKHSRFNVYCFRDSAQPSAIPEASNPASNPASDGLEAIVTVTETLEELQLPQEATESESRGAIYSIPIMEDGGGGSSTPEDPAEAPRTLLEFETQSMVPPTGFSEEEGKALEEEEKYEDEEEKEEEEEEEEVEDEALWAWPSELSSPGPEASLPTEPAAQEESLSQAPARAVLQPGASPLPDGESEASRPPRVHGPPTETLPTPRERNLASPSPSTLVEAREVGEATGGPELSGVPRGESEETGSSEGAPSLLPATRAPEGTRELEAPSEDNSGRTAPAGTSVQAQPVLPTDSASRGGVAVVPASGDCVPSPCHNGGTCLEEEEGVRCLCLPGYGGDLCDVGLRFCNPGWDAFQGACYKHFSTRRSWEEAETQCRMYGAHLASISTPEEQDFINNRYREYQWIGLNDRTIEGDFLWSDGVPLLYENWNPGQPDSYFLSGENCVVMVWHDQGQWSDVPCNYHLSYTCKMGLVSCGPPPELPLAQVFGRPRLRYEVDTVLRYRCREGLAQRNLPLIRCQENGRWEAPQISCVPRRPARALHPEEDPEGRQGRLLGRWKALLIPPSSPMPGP
Description: A ForteBio OctetRed384 instrument was used to study the binding kinetics of each peptide to recombinant human brevican (re-suspended in PBS and 0.1 mM EDTA, pH 6.8). The brevican protein was deglycosylated prior to experimental use in water+0.05% tween, PI, sialidase, 0-glycosidase, N-glycosidase in sodium acetate [200 mM], NaCl [250 mM], Tris-HCl [200 mM], pH 7.5.) in the presence of protease inhibitor overnight at 4° C. (this entire composition will be referred to as ‘de-glycosylation buffer’). […] The final volume for all the solutions was 80 μl/well. Assays were performed at 30° C. in solid black 384-well plates (Geiger Bio-One). Prior to beginning, Ni-NTA biosensors were soaked for 10 min in working buffer. Before loading the protein onto each biosensor, a baseline was established in working buffer for 60 s. Deglycosylated brevican (50 μg/ml BΔg; His-tagged) was loaded on the surface of each biosensors for 180 s. […] Reference biosensors were also included in the plate as internal controls, where biosensors were exposed to the ‘de-glycosylation buffer’ lacking brevican protein during the loading step. A 60 s biosensor washing step was applied. Then, biosensors were exposed to the analyte (peptide) in working buffer (ranging between 0-10 μM BTP) for 300 s during the ‘association’ step. Finally, the biosensors were exposed to working buffer (without peptide) during the ‘dissociation’ step for 600 s. Binding affinity of each peptide was assessed through steady state analysis, where the response unit was plotted over peptide concentration. All data was plotted and curves were fitted using the non-linear ‘one-site specific binding’ fit, and the dissociation constant (KD) value was calculated using the GraphPad Prism software.
Binding kinetics analyses were performed using the Octet RED platform (Forte Bio) to measure the binding affinity of BTP-7, 8 and 9 to purified recombinant BΔg protein.

HEK-Bcan cells [2] = test: Flow cytometry blocking study with 50× molar excess of unlabeled peptide; format: cell-based, human; settings: fluorescein-conjugated peptide 1 μM
Description: (§1) Cells were washed once with PBS and then, treated with 1 mL of 2.5 mM EDTA to dissociate the cells. The EDTA was removed by centrifugation, and PBS supplemented with 10% FBS was added to create a single-cell suspension. All peptide stocks were dissolved in DMSO, and stored at −20° C. in the dark. Cells were incubated with each peptide (at the desired final concentration, between 1-10 μM) for 3 hrs at 37° C. in the dark under constant rotation. After incubation, cells were washed 3× with PBS with 10% FBS (by centrifugation at 7000 rpm for 3 mins each). Then, cells were resuspended in 3.7% formaldehyde for fixation, and finally washed once with PBS. Cells were evaluated for peptide uptake (mean fluorescence intensity) by flow cytometry (10,000-20,000 events).
For blocking studies, cells were dissociated as described above and resuspended in cold PBS with 10% FBS. Cells were then incubated with a 50× molar excess of unlabeled peptide for 10 mins on ice, before adding the corresponding FITC-labeled peptide at a final concentration of 1 μM and incubated for 1.5 hrs on ice. Cells were then washed with cold PBS with 10% FBS, fixed and analyzed by flow cytometry.

BT188 glioma stem cells = test: Peptide uptake in BT188 (BΔg-high) versus BT145 (BΔg-low) glioma stem cells, fluorescence imaging; format: cell-based, human; settings: fluorescein-labeled peptides, 5 μM
Description: FIGS. 3A-I. Peptide characterization for BΔg specificity in glioma stem cells. (a) Table summary listing the properties of 7 peptides (composed of 8 D-amino acid residues, SEQ ID NOs:3-9, in order of appearance) that were isolated from the OBOC library screen. MW=molecular weight; KD=Kyte-Doolittle scale for amino acid hydropathy (positive scores indicate […]) (Kyte and Doolittle, J. Mol. Biol. 157, 105-132 (1982)). (b) Chemical structure showing the linkage between the peptide and FITC. (c) Western blot analysis showing the level of BΔg and Bcan in human embryo kidney (HEK) cells, and Bcan-overexpressing HEK cells (HEK-Bcan). […] Each group was normalized to a no-blocking (vehicle) control. Statistics were performed using multiple t-tests, and significance was measured in comparison to each vehicle control (p<0.0001). (e) Uptake of fluorescein-labeled BTP-2, 7, 8, 9, and 10 (at 5 μM conc.) in BT188 (BΔg-high) or BT145 (BΔg-low) glioma stem cells (GSCs). Western blot analysis on the top right confirms the BΔg expression level. […] Statistics were performed using the two-way ANOVA and Tukey's Multiple Comparison test. (f) Chemical structure showing the linkage between the peptide and Cy5.5 dye. (g) Western blot analysis showing the expression of BΔg in GBM-6 cells, with negligible BΔg level in astrocytes or neural progenitor cells (NPC). (h) Graph showing the cell uptake ranking of the top 3 peptide candidates, BTP-7, 8 and 9 in GBM-6 cells as determined by flow cytometry analysis with s.d. error bars (5 μM conc.; nevents=20,000 cells; nexperiment=5). Each group is normalized to the control scramble peptide (Scr-8). Statistics were performed using the one-way ANOVA and Tukey's Multiple Comparison test (significance were measured in comparison to the Scr-8 control). (i) Bar graph showing the uptake of BTP-7, 8 and 9 in GBM-6 cells and NPC with 95% confidence interval error bars (1 μM conc.; nevents=20,000 cells). Statistics were performed using the two-way ANOVA and Sidak's Multiple Comparison test.

HEK-Bcan cells [3] = test: Flow cytometry cell uptake, HEK-Bcan versus regular HEK cells; format: cell-based, human; settings: Cy5.5-conjugated peptides, 5 μM
Description: as §1

GBM-6 cells = test: Flow cytometry cell uptake in GBM-6 cells; format: cell-based, human; settings: for uptake in GBM-6 GSCs compared with astrocytes / uptake in GBM-6 cells at 4° C. compared to 37° C.: Cy5.5-conjugated peptides; for uptake in GBM-6 cells at 4° C. compared to 37° C.: inhibition of endocytosis
Description: as §1

[4] = healthy mice, 4 hours post-intravenous administration, IVIS
Description: The lyophilized BTP-7-Cy5.5 powders were dissolved to a final concentration of 10 mM in DMSO by mass. The peptide was then diluted to a concentration of 100 μM in a solution of 50:50 polyethylene glycol (PEG)-300:0.9% sodium chloride (v/v) irrigation solution. A 100 μL dose of each peptide solution was administered intravenously via the tail vein into healthy 8-week old female nude mice. After 4 hours, 100 μL of 50 mg/mL tetramethylrhodamine isothiocyanate-labeled dextran (155 kDa) in 0.9% sodium chloride was injected via the tail vein. Mice were sacrificed 30 min later by cervical dislocation. The brain, heart, lungs, kidneys, spleen, and liver were excised from each mouse, frozen on dry ice and imaged using an In Vivo Imaging System (Perkin Elmer) at an excitation of 640 nm. Using Living Image software, regions of interest were drawn around each organ and the total radiant efficiency of Cy5.5 from each organ was quantified.

intracranial GBM-6 tumor = test: Intracranial GBM-6 tumor uptake analysis in nude mice; format: in vivo, mouse; settings: i.v. tail vein, 100 μL of 500 μM
Description: For intracranial tumor implantation, animals were injected with 100,000 GBM-6 cells in the right frontal lobe of the mouse brain. Briefly, nude mice (6-8 weeks) were anaesthetized by i.p. injection with ketamine/xylazine/acepromazine mixed in 0.9% NaCl saline solution. Then, the mice heads were mounted onto a stereotactic frame, and sterilized by swabbing with iodine solution. An 8-10 mm sagittal incision was made with a scalpel, and the bregma of the skull was identified. A Hamilton syringe containing GBM-6 cells (in PBS; 3 μL volume) was inserted into the coronal suture of the skull at the following coordinates from the bregma: 2 mm right and 0.5 mm forward. The tip of the needle was lowered/implanted into the brain (3.5 mm distance). GBM-6 cells were injected slowly (0.1 μL per 10 seconds). After that, the needle was retracted, and the skin around the incision was sutured back together. Mice were allowed to recover after surgery (meloxicam were given as analgesia post-surgery). […] After 8 hrs, mice were sacrificed and their brains excised, cryosectioned, stained with Hoechst dye and imaged by fluorescence microscopy. […] The mean Cy5.5 fluorescence intensity of the tumor was performed on ImageJ and compared with the mean fluorescence intensity on the non-tumor area on the contralateral (left) side of the brain.

[5] = In vivo analysis of BBB permeability in non-tumor bearing mice; design: species or system mouse; settings: i.v., 100 μL of 100 μM, 4 hrs
Description: To measure BBB penetration, naïve nude mice were injected intravenously via the tail vein with either Cy5.5-labeled BTP-7 or a scramble (Cy5.5-Scr-7) peptide (100 μL of 100 μM peptide solution). 4 hrs later, mice were injected with 100 μL of 50 mg/mL TRITC-dextran (155 kDa) via the tail vein. Mice were euthanized after 30 mins, and their brains excised, frozen and cryo-sectioned into 16 μm slices. Tissue sections from the frontal lobe were imaged by confocal microscopy using a 20× objective. Areas with high TRITC (red in original) signal indicate regions of high perfusion (i.e. blood vessels). Cy5.5 (peptide) intensity was measured in areas outside of visible TRITC signal to ensure that only peptide intensity in the brain parenchyma (peptide that has successfully extravasated from the vessels and accumulated in the brain tissues) was quantified.

| Compound | Kd [1] [nM] | uptake in HEK-Bcan cells in the presence of the blocking peptide (HEK-Bcan cells [2]) | size of the difference in uptake between BT188 and BT145 GSCs (ranking) (BT188 glioma stem cells) | uptake in BT188 GSCs compared with BT145 GSCs (BT188 glioma stem cells) | uptake in HEK-Bcan cells compared with regular HEK cells (HEK-Bcan cells [3]) | uptake in GBM-6 GSCs compared with astrocytes (GBM-6 cells) | uptake in GBM-6 cells at 4° C. compared to 37° C. (GBM-6 cells; 5 μM) | cell uptake ranking in GBM-6 cells (GBM-6 cells; Cy5.5-labeled, 5 μM, normalized to Scr-8) | fluorescence intensity in liver and kidneys [4] | uptake in brain and heart compared to other organs [4] | tumor uptake compared to the control Cy5.5 dye (without peptide) (intracranial GBM-6 tumor; brain cryo-sections, mean Cy5.5 intensity in tumor) | fluorescence intensity of tumor compared to the contralateral area (intracranial GBM-6 tumor; tumor-to-non-tumor ratio) [times] | accumulation in the brain parenchyma outside of regions of high perfusion ([5]; healthy non-tumor bearing mice, confocal microscopy) | level of extravasation across the BBB compared with Scr-7 ([5]; mean Cy5.5 intensity in parenchyma) |
| --- | --- | --- | --- | --- | --- | --- | --- | --- | --- | --- | --- | --- | --- | --- |
| CC[C@@H](C)[C@@H](NC(=O)[C@@H](C)NC(=O)[C@@H](CCCNC(=N)N)NC(=O)[C@@H](CCC(N)=O)NC(=O)[C@@H](CCCNC(=N)N)NC(=O)[C@@H](CCCNC(=N)N)NC(=O)[C@@H](CC(=O)O)NC(=O)[C@@H](C)N)C(N)=O [BTP-9] (H-[dA][dD][dR][dR][dQ][dR][dA][dI]-NH2; N-terminus and C-terminus assumed) | 1500 | reduced uptake | largest and most significant difference | greater uptake | – | – | – | – | – | – | – | – | – | – |
| BTP-8-Cy5.5 ([dT][dI][dR][dK][dL][dV][dR][dH]-{Ahx-Pra(Cy5.5)-NH2}) | – | – | – | – | significantly higher | significantly higher | significantly reduced | – | – | – | – | – | – | – |
| BTP-9-Cy5.5 ([dA][dD][dR][dR][dQ][dR][dA][dI]-{Ahx-Pra(Cy5.5)-NH2}) | – | – | – | – | significantly higher | significantly higher | significantly reduced | – | – | – | – | – | – | – |
| CC(C)[C@@H](NC(=O)[C@@H](Cc1c[nH]cn1)NC(=O)CNC(=O)[C@@H](Cc1c[nH]c2ccccc12)NC(=O)[C@@H](CCCCN)NC(=O)[C@H](N)[C@H](C)O)C(=O)N[C@H](CC(N)=O)C(=O)N[C@H](CCCCN)C(=O)NCCCCCC(=O)N[C@@H](Cc1cn(CCCNC(=O)CCCCC[N+]2=C(/C=C/C=C/C=C3/N(C)c4ccc5ccccc5c4C3(C)C)C(C)(C)c3c2ccc2ccccc32)nn1)C(N)=O [BTP-7-Cy5.5] | – | – | – | – | significantly higher | significantly higher | significantly reduced | highest uptake | highest fluorescence intensity | relatively low uptake | more than 10 times | 4 | accumulated within the brain parenchyma | higher that of Scr-7 |
